# Laboratory results as given in patent publication US20100108083A1, “USE OF MEANS FOR TRAPPING CO2 IN A FILTER FOR PREVENTING INFLAMMATION, CANCER AND CARDIOVASCULAR DISEASES IN A SUBJECT EXPOSED TO TOBACCO SMOKE” (priority 2007, published 2010).
# Tests used:
# [1] = test system: BALB/c mice; assay: Plethysmography (Penh value) of mice breathing air enriched in CO2; format: in vivo
# Protocol: 1/ BALB/c mice were placed in a closed chamber in which the proportion of CO2, at constant proportion of oxygen, was raised artificially to 2 (atmospheric air control), 5, 10 and 15% by injection of CO2 into the chamber every other minute. At each of these concentrations, non-invasive functional testing was carried out on the mice by plethysmography, according to the technique described by Hamelmann et al. (1997) Am J Respir Crit Care Med 156: 766-775). This technique involves assessing the respiratory distress of the mice by determining the Penh (enhanced pause) value.
# [2] = test system: NF-κB p65; assay: ELISA of NF-κB p65 in the nucleus of pulmonary cells of mice after CO2 inhalation; format: in vivo; conditions: inhaled air with CO2 content above 10%, without decrease in oxygen, versus atmospheric air
# Protocol: (§1) 2/After keeping the mice for 10 minutes in the chambers at the various concentrations of CO2 stated above, the mice were sacrificed (one hour after the start of the experiment) in order to determine the proteins β-catenin and NF-κBp65 in the nucleus of their pulmonary cells.
# (§2) These two proteins are recognized markers of inflammation and of cancer. They were determined on the basis of optical density using specialized kits. β-Catenin was determined by ELISA (Catenin Enzyme Immunoassay Kit, Assay designs, Ann Arbor, Mich.) following the manufacturer's instructions. The protein NF-κB p65 was determined by another ELISA assay (TrasAM NF-κB p65 nuclear DNA based ELISA, Active Motif, Rixensart, Belgium) following the manufacturer's instructions. The values obtained, presented in the diagram in FIG. 2, are expressed relative to the total amount of proteins extracted from the cell nucleus.
# [3] = test system: β-catenin; assay: ELISA of β-catenin in the nucleus of pulmonary cells of mice after CO2 inhalation; format: in vivo; conditions: inhaled air with CO2 content above 10%, without decrease in oxygen, versus atmospheric air
# Protocol: as §1, §2
# [4] = test system: BALB/c mice; conditions: CO2 of tobacco smoke selectively trapped by the filter, 38 minutes inhalation
# Protocol: The experiment was conducted on BALB/c mice aged from 6 to 7 weeks under in vivo conditions. The number of mice used was 32 males, divided into four groups of eight. […] Each experiment lasted 38 minutes, or typically the equivalent of the consumption of 5 cigarettes by a smoker.
# The mice were sacrificed after inhalation of air for 38 minutes in the four situations described above (see also the commentary of FIG. 3) and the lungs were removed immediately for analysis.
# The lungs were analysed in order to measure the activity or the secretion of six proteins that are known markers of inflammation. […] These proteins are as follows: RANTES, IL-6, TNF-alpha, MIP-2, PP2A and NE-κB p65. […] Measurements of activity or of relative concentration of these proteins were performed using the following commercial kits: Mouse TNF-alpha/TNFSF1A DuoSet (ELISA assay for the concentration of TNF-alpha); Mouse CXCL2/MIP-2 DuoSet (ELISA assay for the concentration of MIP-2), Mouse CCL5/RANTES ELISpot Kit (ELISpot assay for the secretion of RANTES); Mouse IL-6 ELISpot Kit (ELISpot assay for the secretion of IL-6), all from R&D Systems (Minneapolis, Minn., USA).
smiles,measurement,setting,value
"O=C=O [CO2, carbon dioxide]","Penh value, level relative to control","[1]; 15% CO2 in inhaled air at constant proportion of oxygen, versus atmospheric air control",6 times
same,Change of Penh value,[1]; proportion of CO2 changes from 10 to 15%,doubled
same,Expression of NF-κBp65 in lung tissues,[2],very significant increase
same,Expression of β-catenin in lung tissues,[3],very significant increase
"[K+].[OH-] [KOH solution, potassium hydroxide]",Inflammation found in mice exposed to tobacco smoke,[4],eliminated partially or even completely
